Measured values reported in ChEMBL document CHEMBL1140417, “Total and semisynthesis and in vitro studies of both enantiomers of 20-fluorocamptothecin” (Bioorg Med Chem Lett, 2005).
Activity calls are given as the source filed them. The calls are words filed in the database; no cut-off is given here.

Target: T1, DNA topoisomerase 1 (Homo sapiens) (UniProt P11387)
T1 sequence (whole entry): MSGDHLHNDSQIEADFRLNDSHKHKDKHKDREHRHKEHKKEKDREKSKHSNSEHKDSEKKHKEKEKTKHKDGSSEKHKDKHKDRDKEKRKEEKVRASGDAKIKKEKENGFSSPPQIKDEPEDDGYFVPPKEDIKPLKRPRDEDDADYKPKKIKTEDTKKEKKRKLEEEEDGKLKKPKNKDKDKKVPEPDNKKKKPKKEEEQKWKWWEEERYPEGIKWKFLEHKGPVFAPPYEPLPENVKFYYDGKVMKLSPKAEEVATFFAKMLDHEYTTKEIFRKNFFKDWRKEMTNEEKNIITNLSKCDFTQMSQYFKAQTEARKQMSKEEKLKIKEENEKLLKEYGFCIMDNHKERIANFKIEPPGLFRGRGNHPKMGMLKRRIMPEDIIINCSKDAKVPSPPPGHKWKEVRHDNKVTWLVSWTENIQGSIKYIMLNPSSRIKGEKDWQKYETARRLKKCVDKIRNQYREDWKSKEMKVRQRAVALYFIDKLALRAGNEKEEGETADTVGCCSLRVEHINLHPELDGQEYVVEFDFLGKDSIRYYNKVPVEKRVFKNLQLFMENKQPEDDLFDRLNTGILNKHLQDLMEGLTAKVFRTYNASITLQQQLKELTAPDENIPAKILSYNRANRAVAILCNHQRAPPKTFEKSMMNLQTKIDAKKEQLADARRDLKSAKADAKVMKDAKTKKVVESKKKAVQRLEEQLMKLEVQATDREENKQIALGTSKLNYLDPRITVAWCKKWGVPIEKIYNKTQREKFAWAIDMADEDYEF
Experiment: Inhibition of topoisomerase-1 at 100 uM

Activity | Structure (SMILES)
inactive | CC[C@]1(F)C(=O)OCc2c1cc1n(c2=O)Cc2c-1nc1ccc(O)cc1c2[Si](C)(C)C(C)(C)C
inactive | CC[C@]1(F)C(=O)OCc2c1cc1n(c2=O)Cc2cc3ccccc3nc2-1
inactive | CC[C@]1(F)C(=O)OCc2c1cc1n(c2=O)Cc2cc3cc(F)ccc3nc2-1
Active | CC[C@@]1(F)C(=O)OCc2c1cc1n(c2=O)Cc2cc3ccccc3nc2-1
inactive | CC[C@]1(F)C(=O)OCc2c1cc1n(c2=O)Cc2cc3cc4c(cc3nc2-1)OCO4
inactive | CC[C@]1(F)C(=O)OCc2c1cc1n(c2=O)Cc2cc3c4c(ccc3nc2-1)OCO4
